Measurements taken from PMC7827406, “Structure–Activity Relationship (SAR) Study of Spautin-1 to Entail the Discovery of Novel NEK4 Inhibitors” (International Journal of Molecular Sciences, 2021).
Like-named read-outs stand apart in the source and are kept apart here.

Assays:
Test in all cases: biochemical
Set-up in all cases: Eurofins KinaseProfiler full panel at Km ATP, residual kinase activity (%) relative to DMSO
MLK3(h) = target: T1, MLK3(h) (Homo sapiens, UniProt Q16584)
T1 construct: gene MAP3K11
Method in brief: (§1)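 Two 10 µM single-concentration screens were run: a competition-binding screen, in which DNA-tagged kinase bound to immobilized ligands was quantified by qPCR, and a radiometric activity panel at Km ATP. Each is expressed as residual kinase activity (%).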

NEK7(h) = NEK7(h) (Homo sapiens, UniProt Q8TDX7)
Method in brief: as §1

ACK1(h) = target: T2, ACK1(h) (Homo sapiens, UniProt Q07912)
T2 construct: gene TNK2
Method in brief: as §1

Hck(h) activated = Hck(h) activated (Homo sapiens, UniProt P08631)
Method in brief: as §1

Abl (H396P) (h) = target: T3, Abl (H396P) (h) (Homo sapiens, UniProt P00519, H396P)
T3 construct: gene ABL1
Method in brief: as §1

Mnk2(h) = target: T4, Mnk2(h) (Homo sapiens, UniProt Q9HBH9)
T4 construct: gene MKNK2
Method in brief: as §1

TAO2(h) = target: T5, TAO2(h) (Homo sapiens, UniProt Q9UL54)
T5 construct: gene TAOK2
T5 sequence (Q9UL54 1-1235): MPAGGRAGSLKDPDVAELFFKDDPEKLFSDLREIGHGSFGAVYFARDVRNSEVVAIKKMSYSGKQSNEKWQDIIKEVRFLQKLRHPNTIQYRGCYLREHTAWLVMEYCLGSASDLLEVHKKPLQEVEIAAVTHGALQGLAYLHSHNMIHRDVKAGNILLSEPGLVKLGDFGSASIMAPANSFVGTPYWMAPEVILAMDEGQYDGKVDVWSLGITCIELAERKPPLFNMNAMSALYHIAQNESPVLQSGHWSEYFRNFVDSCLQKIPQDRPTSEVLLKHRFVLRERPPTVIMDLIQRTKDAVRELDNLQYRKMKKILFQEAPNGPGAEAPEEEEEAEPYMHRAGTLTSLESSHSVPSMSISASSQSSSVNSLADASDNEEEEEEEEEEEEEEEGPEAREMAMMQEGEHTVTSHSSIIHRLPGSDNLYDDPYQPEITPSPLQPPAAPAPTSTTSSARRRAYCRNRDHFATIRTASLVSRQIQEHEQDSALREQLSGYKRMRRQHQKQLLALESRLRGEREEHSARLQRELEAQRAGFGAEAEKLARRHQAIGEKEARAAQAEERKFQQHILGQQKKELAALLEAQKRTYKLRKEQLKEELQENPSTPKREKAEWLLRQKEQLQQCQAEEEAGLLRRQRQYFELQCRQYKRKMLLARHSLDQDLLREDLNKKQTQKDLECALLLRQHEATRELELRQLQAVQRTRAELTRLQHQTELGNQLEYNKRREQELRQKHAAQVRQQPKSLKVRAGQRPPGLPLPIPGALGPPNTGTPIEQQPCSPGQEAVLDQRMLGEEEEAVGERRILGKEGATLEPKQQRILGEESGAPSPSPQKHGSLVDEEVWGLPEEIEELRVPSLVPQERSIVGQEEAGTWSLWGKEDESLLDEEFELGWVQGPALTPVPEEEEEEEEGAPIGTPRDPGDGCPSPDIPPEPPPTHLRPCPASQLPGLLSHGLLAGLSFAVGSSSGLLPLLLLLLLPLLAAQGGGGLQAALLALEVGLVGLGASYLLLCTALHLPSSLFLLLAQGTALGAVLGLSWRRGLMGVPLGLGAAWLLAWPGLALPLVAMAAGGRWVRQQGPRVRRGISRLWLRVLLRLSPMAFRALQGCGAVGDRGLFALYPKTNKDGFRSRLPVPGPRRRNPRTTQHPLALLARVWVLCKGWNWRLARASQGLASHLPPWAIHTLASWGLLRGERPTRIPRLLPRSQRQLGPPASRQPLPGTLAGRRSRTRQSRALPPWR
Method in brief: as §1

[1] = read-out: Residual activity (%) 5ay
[2] = read-out: Residual activity (%) Spautin-1 5aa
[3] = read-out: Residual activity (%) 5at
[4] = read-out: Residual activity (%) 5as

Sequence of NEK7(h) (Q8TDX7 whole entry): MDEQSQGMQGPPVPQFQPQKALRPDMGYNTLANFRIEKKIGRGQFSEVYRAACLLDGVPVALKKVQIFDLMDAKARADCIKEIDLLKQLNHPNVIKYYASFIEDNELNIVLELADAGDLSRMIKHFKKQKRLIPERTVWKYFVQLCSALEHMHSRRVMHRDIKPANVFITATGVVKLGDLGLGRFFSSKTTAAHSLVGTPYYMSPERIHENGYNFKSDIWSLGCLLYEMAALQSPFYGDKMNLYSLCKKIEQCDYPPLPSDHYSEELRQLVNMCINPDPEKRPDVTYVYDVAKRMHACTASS
T2 sequence (Q07912 whole entry): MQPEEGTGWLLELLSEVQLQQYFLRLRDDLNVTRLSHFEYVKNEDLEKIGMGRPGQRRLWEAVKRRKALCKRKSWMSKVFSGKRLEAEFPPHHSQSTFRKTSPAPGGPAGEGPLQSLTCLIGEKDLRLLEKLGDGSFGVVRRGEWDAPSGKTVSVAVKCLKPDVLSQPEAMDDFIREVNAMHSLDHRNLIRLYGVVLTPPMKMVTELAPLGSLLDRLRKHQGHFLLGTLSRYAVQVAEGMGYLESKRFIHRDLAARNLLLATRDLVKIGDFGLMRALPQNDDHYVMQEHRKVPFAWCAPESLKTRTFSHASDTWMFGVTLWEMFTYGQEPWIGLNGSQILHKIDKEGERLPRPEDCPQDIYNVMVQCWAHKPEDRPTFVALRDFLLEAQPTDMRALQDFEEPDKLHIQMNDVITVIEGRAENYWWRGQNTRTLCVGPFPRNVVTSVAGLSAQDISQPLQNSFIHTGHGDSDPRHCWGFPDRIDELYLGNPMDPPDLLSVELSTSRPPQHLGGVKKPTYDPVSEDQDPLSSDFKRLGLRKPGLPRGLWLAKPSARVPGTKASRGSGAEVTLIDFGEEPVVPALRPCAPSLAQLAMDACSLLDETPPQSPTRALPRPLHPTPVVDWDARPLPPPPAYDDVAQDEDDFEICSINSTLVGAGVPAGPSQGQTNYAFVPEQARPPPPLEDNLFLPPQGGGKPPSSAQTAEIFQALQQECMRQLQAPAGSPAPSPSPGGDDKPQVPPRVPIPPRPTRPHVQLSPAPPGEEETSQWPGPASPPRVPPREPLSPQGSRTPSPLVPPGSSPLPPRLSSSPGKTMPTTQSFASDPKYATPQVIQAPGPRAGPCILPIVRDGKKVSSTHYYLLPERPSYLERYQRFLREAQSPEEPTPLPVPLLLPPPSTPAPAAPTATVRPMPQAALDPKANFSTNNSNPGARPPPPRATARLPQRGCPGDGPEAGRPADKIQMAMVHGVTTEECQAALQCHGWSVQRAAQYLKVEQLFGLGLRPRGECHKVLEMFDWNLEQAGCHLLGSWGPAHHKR
T1 sequence (Q16584 whole entry): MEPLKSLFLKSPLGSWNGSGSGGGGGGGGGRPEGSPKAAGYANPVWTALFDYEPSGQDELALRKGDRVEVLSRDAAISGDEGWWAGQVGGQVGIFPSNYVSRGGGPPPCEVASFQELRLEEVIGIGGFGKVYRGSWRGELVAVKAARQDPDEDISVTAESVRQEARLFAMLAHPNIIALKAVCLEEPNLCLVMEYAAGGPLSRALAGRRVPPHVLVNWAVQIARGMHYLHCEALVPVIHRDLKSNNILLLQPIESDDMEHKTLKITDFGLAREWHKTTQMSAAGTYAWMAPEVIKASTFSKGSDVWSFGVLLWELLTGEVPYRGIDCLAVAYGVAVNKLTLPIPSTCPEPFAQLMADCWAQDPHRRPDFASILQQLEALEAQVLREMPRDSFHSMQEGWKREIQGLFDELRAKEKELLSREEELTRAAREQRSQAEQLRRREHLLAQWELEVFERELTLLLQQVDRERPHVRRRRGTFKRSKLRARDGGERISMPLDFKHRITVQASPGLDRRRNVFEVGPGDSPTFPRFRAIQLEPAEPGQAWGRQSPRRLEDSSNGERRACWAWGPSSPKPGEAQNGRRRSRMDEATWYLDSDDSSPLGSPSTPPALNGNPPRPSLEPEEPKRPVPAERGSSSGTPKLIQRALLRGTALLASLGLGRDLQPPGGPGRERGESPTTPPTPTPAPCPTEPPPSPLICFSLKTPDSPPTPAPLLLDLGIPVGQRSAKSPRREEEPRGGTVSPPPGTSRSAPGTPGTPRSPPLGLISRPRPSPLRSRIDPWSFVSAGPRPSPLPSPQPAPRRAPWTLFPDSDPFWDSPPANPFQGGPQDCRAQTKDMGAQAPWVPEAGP
Sequence of Hck(h) activated (P08631 whole entry): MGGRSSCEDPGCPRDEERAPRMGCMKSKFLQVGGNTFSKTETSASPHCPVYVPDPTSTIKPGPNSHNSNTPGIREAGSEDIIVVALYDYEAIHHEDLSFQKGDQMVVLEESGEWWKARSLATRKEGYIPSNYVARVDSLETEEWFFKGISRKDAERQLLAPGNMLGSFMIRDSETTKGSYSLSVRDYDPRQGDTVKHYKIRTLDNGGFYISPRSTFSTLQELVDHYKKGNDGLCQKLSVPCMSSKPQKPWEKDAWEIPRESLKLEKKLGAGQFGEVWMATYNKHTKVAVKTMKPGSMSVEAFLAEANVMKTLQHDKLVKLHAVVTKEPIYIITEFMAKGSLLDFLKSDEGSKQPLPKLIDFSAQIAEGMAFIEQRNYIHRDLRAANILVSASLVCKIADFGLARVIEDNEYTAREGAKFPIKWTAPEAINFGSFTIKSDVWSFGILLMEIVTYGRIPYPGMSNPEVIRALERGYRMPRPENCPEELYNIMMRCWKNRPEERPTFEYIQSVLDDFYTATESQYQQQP
T4 sequence (Q9HBH9 whole entry): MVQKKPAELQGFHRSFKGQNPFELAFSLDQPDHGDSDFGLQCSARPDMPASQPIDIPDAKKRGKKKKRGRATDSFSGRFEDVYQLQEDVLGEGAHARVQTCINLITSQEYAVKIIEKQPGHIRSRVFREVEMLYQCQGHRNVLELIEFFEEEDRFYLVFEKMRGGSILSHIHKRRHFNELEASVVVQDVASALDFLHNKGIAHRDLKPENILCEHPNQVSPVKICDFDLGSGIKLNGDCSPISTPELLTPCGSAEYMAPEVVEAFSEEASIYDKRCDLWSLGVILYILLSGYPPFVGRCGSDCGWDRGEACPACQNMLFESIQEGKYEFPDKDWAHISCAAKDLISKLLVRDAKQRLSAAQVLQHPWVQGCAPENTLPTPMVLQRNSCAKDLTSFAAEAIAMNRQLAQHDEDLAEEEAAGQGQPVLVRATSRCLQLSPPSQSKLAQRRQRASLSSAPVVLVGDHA

SMILES: COc1ccc2ncnc(Nc3cccc(F)c3)c2c1 [5ay, N-(3-Fluorophenyl)-6-Methoxy-4-Quinazolinamine]
- remaining activity at 10 µM (MLK3(h); [1]): 97%
- remaining activity at 10 µM (NEK7(h); [1]): 76%
- remaining activity at 10 µM (ACK1(h); [1]): 56%
- remaining activity at 10 µM (Hck(h) activated; [1]): 46%
- remaining activity at 10 µM (Abl (H396P) (h); [1]): 76%
- remaining activity at 10 µM (Mnk2(h); [1]): 19%
- remaining activity at 10 µM (TAO2(h); [1]): 112%

SMILES: Fc1ccc(CNc2ncnc3ccc(F)cc23)cc1 [5aa, 6-Fluoro-N-(4-fluorobenzyl)-4-Quinazolinamine]
- remaining activity at 10 µM (MLK3(h); [2]): 99%
- remaining activity at 10 µM (NEK7(h); [2]): 95%
- remaining activity at 10 µM (ACK1(h); [2]): 85%
- remaining activity at 10 µM (Hck(h) activated; [2]): 85%
- remaining activity at 10 µM (Abl (H396P) (h); [2]): 95%
- remaining activity at 10 µM (Mnk2(h); [2]): 93%
- remaining activity at 10 µM (TAO2(h); [2]): 110%

SMILES: Fc1ccc2ncnc(NCCc3ccc(Cl)cc3)c2c1 [5at, N-[2-(4-Chlorophenyl)Ethyl]-6-Fluoro-4-Quinazolinamine]
- remaining activity at 10 µM (MLK3(h); [3]): 114%
- remaining activity at 10 µM (NEK7(h); [3]): 83%
- remaining activity at 10 µM (ACK1(h); [3]): 71%
- remaining activity at 10 µM (Hck(h) activated; [3]): 108%
- remaining activity at 10 µM (Abl (H396P) (h); [3]): 80%
- remaining activity at 10 µM (Mnk2(h); [3]): 80%
- remaining activity at 10 µM (TAO2(h); [3]): 107%

SMILES: Fc1ccc(CCNc2ncnc3ccc(F)cc23)cc1 [5as, 6-Fluoro-N-[2-(4-Fluorophenyl)Ethyl]-4-Quinazolinamine]
- remaining activity at 10 µM (MLK3(h); [4]): 99%
- remaining activity at 10 µM (NEK7(h); [4]): 74%
- remaining activity at 10 µM (ACK1(h); [4]): 84%
- remaining activity at 10 µM (Hck(h) activated; [4]): 85%
- remaining activity at 10 µM (Abl (H396P) (h); [4]): 86%
- remaining activity at 10 µM (Mnk2(h); [4]): 83%
- remaining activity at 10 µM (TAO2(h); [4]): 109%
